The NIST ThermoML archive (doi:10.1021/acs.jced.6b00178)

Assay: xn = mol fraction of the nth substance listed
Conditions: 100 kPa, Liquid; for viscosity: Concentric cylinders viscometry; for mass density: Vibrating tube method

CCCCn1cc[n+](C)c1.N#C[S-] [1-butyl-3-methylimidazolium thiocyanate] + CCCC[n+]1ccn(C)c1.O=S(=O)([N-]S(=O)(=O)C(F)(F)F)C(F)(F)F
Conditions	mass density, x2 = 0 [kg/m3]	mass density, x2 = 0.25 [kg/m3]	mass density, x2 = 0.5 [kg/m3]	mass density, x2 = 0.748 [kg/m3]	viscosity, x2 = 0 [mPa·s]	viscosity, x2 = 0.25 [mPa·s]	viscosity, x2 = 0.5 [mPa·s]	viscosity, x2 = 0.748 [mPa·s]
283.15 K	1079.2	1206.2	1305.3	1385.3	139.54	133.49	124.13	115.12
288.15 K	1076.2	1202.6	1301.2	1380.7	104.51	101.08	94.68	88.29
293.15 K	1073.2	1199	1297.1	1376.2	82.91	80.92	76.17	71.22
298.15 K	1070.2	1195.4	1293.1	1371.7	62.63	61.69	58.5	55.06
303.15 K	1067.2	1191.8	1289	1367.3	49.94	49.55	47.23	44.62
308.15 K	1064.2	1188.3	1285	1362.8	40.48	40.42	38.7	36.7
313.15 K	1061.3	1184.7	1281	1358.4	34.08	34.22	32.85	31.22
318.15 K	1058.4	1181.2	1277.1	1354	27.8	28.05	27.03	25.81
323.15 K	1055.5	1177.7	1273.1	1349.7	23.49	23.79	22.97	22.01
328.15 K	1052.6	1174.3	1269.2	1345.3	20.06	20.39	19.74	18.96
333.15 K	1049.8	1170.8	1265.3	1341	17.58	17.91	17.36	16.7
338.15 K	1047	1167.4	1261.5	1336.7	15.08	15.38	14.94	14.44
343.15 K	1044.1	1164	1257.6	1332.4	13.24	13.54	13.16	12.74
348.15 K	1041.4	1160.6	1253.8	1328.1	11.71	12	11.67	11.33
353.15 K	1038.6	1157.3	1250	1323.9	10.67	10.92	10.65	10.36
358.15 K	1035.8	1154	1246.2	1319.7	9.355	9.577	9.351	9.114
363.15 K	1033.1	1150.7	1242.4	1315.5	8.436	8.621	8.44	8.242
